In US10398661B2, “Methods for classifying a cancer as susceptible to TMEPAI-directed therapies and treating such cancers” (THE BOARD OF REGENTS OF THE UNIVERSITY OF TEXAS SYSTEM, priority 2013, dated 2019):

Key:
TMEPAI [1] = test: TMEPAI mRNA (QPCR) and protein expression in MDA-MB-231 cells with TGF-β; type: cell-based, human
Text: (§1) FIGS. 1A-B: Relative expression of TMEPAI mRNA and protein in normal and cancer cells. FIG. 1A. Effect of TGF-β on TMEPAI mRNA expression by QPCR in normal human mammary epithelial (HMEC) and MDA-MB-231 breast cancer cells, which is inhibited by TGF-β receptor I kinase inhibitor SB431542 (SB). FIG. 1B. Relative expression of TMEPAI protein in HMEC and MDA-MB-231 cells without or with TGF-β stimulation.
(§2) TMEPAI Expression in Normal Mammary Epithelial Cells Vs Breast Cancer Cells. […] The inventors tested the expression of TMEPAI in various breast cancer lines by immunoblotting. […] Moreover, TMEPAI is also expressed by aggressive HER2-positive breast cancer cells that either coexpress estrogen receptor (BT-474) or not (SK-BR-3) (FIG. 2).

[2] = test system: normal mammary epithelial cells MCF-10A; test: Growth of normal mammary epithelial MCF-10A cells with celastrol; type: cell-based; conditions: 1 μM
Text: FIGS. 10A-D: Celastrol is novel inhibitor of TMEPAI expression and cancer cell growth by enhancing growth suppressive TGF-β signaling. FIG. 10A. […] FIG. 10B. Celastrol had no effect on the growth of normal mammary epithelial cells MCF-10A. FIG. 10C. Celastrol inhibited non-Smad signaling (left panel) and enhanced Smad signaling (right panel) by inhibiting TMEPAI expression. FIG. 10D. Celastrol enhanced Smad signaling as measured by 12XCAGA-Luciferase reporter assay.
Terpinoid Derivative Celastrol Blocked TMEPAI Expression and Reversed TMEPAI Mediated Effects. The inventors identified tripterine (celastrol), a triterpinoid, having the ability to block TGF-β induced TMEPAI expression after screening several terpinoid derivatives with reactive α,β-unsaturated ketones in their structure. […] Only a mild decrease in the proliferation of normal MCF-10A cells was observed even at a 10-fold higher dose of celastrol (not shown). […] Equally, celastrol inhibited non-Smad signaling (FIG. 10C, left panel). The enhancement of Smad signaling is also confirmed by increased 12XCAGA-luciferase reporter activity (FIG. 10D).

[3] = Total body weight of tumor-bearing mice treated with celastrol (toxicity); type: in vivo; conditions: 2 mg/kg
Method: (§3) FIG. 11A. athymic mice bearing subcutaneous MDA-MB-231 tumors that were treated for 3 times a week for 4 consecutive weeks with 2 mg/kg celastrol or vehicle alone. FIG. 11B. Tumor weights following celastrol treatment, P<0.001. […] FIG. 11C. […] Toxicity of celastrol administered was monitored by measuring total body weight.
(§4) Pharmacological Inhibition of TMEPAI Expression Reduces Tumor Growth In Vivo. […] Compared to vehicle-treatment, celastrol treatment led to a ˜6-fold reduction in tumor burden (FIG. 11B). […] Thus, these preclinical studies confirm that TMEPAI expressing breast cancers thrive by suppressing tumor suppressive TGF-β signaling and are therefore susceptible to pharmacological inhibition of TMEPAI expression by celastrol.

[4] = cited from earlier work
MDA-MB-231 tumors = test: Subcutaneous MDA-MB-231 tumors in athymic mice treated with celastrol; type: in vivo; conditions: 2 mg/kg, 3 times a week for 4 weeks
Method: as §3, §4

[5] = Body weights of xenograft-bearing nude mice treated with CLST-NP or CLST (toxicity); type: in vivo; conditions: doses administered: 0.2 mg/kg CLST-NP, 2 mg/Kg CLST
Method: (FIG. 12A) Representative pictures of tumors excised from nude mice that harbored xenografts of human breast cancer cells (MDA-MB-231). (Veh-NP) 2 mg/kg drug-free liposomes, 0.2 mg/kg celastrol containing liposomes (CLST-NP) or 2 mg/Kg celastrol alone (CLST) were administered by intraperitoneal injection every alternate day for first week and every 2 day interval for following week for a total of two weeks period. (FIG. 12B) Tumor weights were shown *p<0.01 versus Vehicle control group. (FIG. 12C) Tumor volumes measured before sacrificing the animals. * p<0.01 versus Vehicle control group. (FIG. 12D) Similarities in body weights of animals treated with vehicle or drugs indicate non-toxicity of CLST-NP and CLST at the doses administered.
Similarities in body weights of animals treated with vehicle or drugs indicate non-toxicity of CLST-NP and CLST at the doses administered.

TMEPAI [6] = test: TMEPAI RNA and protein expression in normal human mammary epithelial cells (HMEC) with TGF-β; type: cell-based; conditions: in response to TGF-β
Text: as §1, §2

[7] = MDA-MB-231 cells, within 6 h of treatment

Compound: NC(=O)c1ccc(-c2nc(-c3ccc4c(c3)OCO4)c(-c3ccccn3)[nH]2)cc1 [SB431542]
- effect of TGF-β on TMEPAI mRNA expression by QPCR in presence of inhibitor (TMEPAI [1]; HMEC and MDA-MB-231 cells): inhibited

Compound: CC1=C(O)C(=O)C=C2C1=CC=C1[C@@]2(C)CC[C@@]2(C)[C@@H]3C[C@](C)(C(=O)O)CC[C@]3(C)CC[C@]12C [celastrol]
- growth of normal MCF-10A cells [2]: no effect
- total body weights of mice versus vehicle [3]: remained the same
- toxic effects at the dose given to mice [3]: no toxic effects
- aqueous solubility [4]: low
- reduction in tumor burden compared to vehicle-treatment (tumor weights) (MDA-MB-231 tumors): ~6 fold
- luminescence signal in the tumors (MDA-MB-231 tumors; MDA-MB-231 cells expressing GFP-luciferase): 500-2500 RLU
- toxicity judged from body weights similar to vehicle [5]: non-toxicity

Compound: TGF-β
- induction of TMEPAI RNA and proteins (TMEPAI [6]): poorly induced
- induction of TMEPAI mRNA (TMEPAI [1]; [7]): > 40 fold
- induction of TMEPAI proteins (TMEPAI [1]; [7]): ~9 fold
